Experiments:
hepatocytes [1] = test: Fatty liver model: RT-PCR metabolic gene expression; conditions: high insulin/glucose disease conditions; pioglitazone 1.5 μM
hepatocytes [2] = test: Fatty liver model: measurement of total triglycerides; assay type: cell-based, rat; conditions: high insulin/glucose media; pioglitazone 1.5 μM; to levels similar to healthy conditions
Procedure: Triglyceride content was assessed using a commercially available colorimetric assay kit (Cayman Triglyceride Colorimetric Assay Kit, Cat #10010303). At the end of the treatment period, cells were collected from the porous membranes by scraping with a rubber policeman and PBS, after which they were centrifuged (2,000×g for 10 minutes at 4° C.). The cell pellets were resuspended in 100 μl of cold diluted Standard Diluent from the triglyceride assay kit and sonicated 20 times at one second bursts. The cell suspension was then centrifuged at 10,000×g for 10 minutes at 4° C. The supernatant was removed and used for the assay as per the manufacturer's protocol and normalized to protein content from the same samples.

- expression of metabolic genes such as Cyp3A2 (hepatocytes [1]): restored
- total triglyceride content of hepatocytes (hepatocytes [2]): reduced
SMILES: CCc1ccc(CCOc2ccc(CC3SC(=O)NC3=O)cc2)nc1 (centres unmarked) [Pioglitazone, pioglitazone]
